Columns and labels:
Assay type in all cases: in vivo
[1] = system: morning glory (Ipomoea hederacea); experiment: Test B preemergence
In short: (§1)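 Greenhouse test: chemicals are formulated in a surfactant-containing non-phytotoxic solvent and applied either preemergence to planted seeds or postemergence to plants 2 to 18 cm tall. Response is rated visually versus controls after 13 to 15 days, 0 meaning no effect and 100 complete control.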

[2] = system: giant foxtail (Setaria faberii); experiment: Test B preemergence
In short: as §1

[3] = system: barnyardgrass (Echinochloa crus-galli); experiment: Test B preemergence
In short: as §1

[4] = system: corn (Zea mays); experiment: Test B preemergence
In short: as §1

[5] = system: crabgrass (Digitaria sanguinalis); experiment: Test B preemergence
In short: as §1

[6] = system: Surinam grass (Brachiaria decumbens); experiment: Test B preemergence
In short: as §1

[7] = system: cocklebur (Xanthium strumarium); experiment: Test B preemergence
In short: as §1

[8] = system: rice (Oryza saliva); experiment: Test B preemergence
In short: as §1

[9] = system: lambsquarters (Chenopodium album); experiment: Test B preemergence
In short: as §1

[10] = system: pigweed (Amaranthus retroflexus); experiment: Test B preemergence
In short: as §1

[11] = system: velvetleaf (Abutilon theophrasti); experiment: Test B preemergence
In short: as §1

[12] = system: Nightshade; experiment: Test C preemergence; details: Rate 500 g/ha, visual evaluation after 12 to 14 days
[13] = system: Sunflower; experiment: Test C preemergence; details: Rate 62 g/ha, scale 0 to 100
[14] = system: Sunflower; experiment: Test C preemergence; details: Rate 500 g/ha, visual evaluation after 12 to 14 days
[15] = system: blackgrass (Alopecurus myosuroides); experiment: Test B postemergence
In short: as §1

[16] = system: giant foxtail (Setaria faberii); experiment: Test B postemergence
In short: as §1

[17] = system: wild oat (Avena fatua); experiment: Test B postemergence
In short: as §1

[18] = system: wheat (Triticum aestivum); experiment: Test B postemergence
In short: as §1

[19] = system: crabgrass (Digitaria sanguinalis); experiment: Test B postemergence
In short: as §1

[20] = system: cocklebur (Xanthium strumarium); experiment: Test B postemergence
In short: as §1

[21] = system: pigweed (Amaranthus retroflexus); experiment: Test B postemergence
In short: as §1

[22] = system: barnyardgrass (Echinochloa crus-galli); experiment: Test C flooded paddy test; details: for Barnyardgrass plant response rating: Flooded Paddy, Rate 500 g/ha, scale 0 to 100, 0 no effect, 100 complete control; for Plant response rating, Barnyardgrass / Plant response rating (scale 0 to 100), Barnyardgrass: flooded paddy test; for Plant response rating, Barnyardgrass: scale 0 to 100 (0 no effect, 100 complete control); for Plant response rating (scale 0 to 100), Barnyardgrass: Rate 62 g/ha, visually evaluated after 12 to 14 days, 0 = no effect, 100 = complete control
In short: (§2)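 Greenhouse-maintained for 12 to 14 days after treatment, the paddy plants (2-leaf stage at application) were scored visually against controls. A score of 0 denotes no effect and a score of 100 denotes complete control.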

[23] = system: duck salad (Heteranthera limosa); experiment: Test C flooded paddy test; details: for Ducksalad plant response rating: Flooded Paddy, Rate 500 g/ha, scale 0 to 100, 0 no effect, 100 complete control; for Plant response rating, Ducksalad / Plant response rating (scale 0 to 100), Ducksalad: flooded paddy test; for Plant response rating, Ducksalad: scale 0 to 100 (0 no effect, 100 complete control); for Plant response rating (scale 0 to 100), Ducksalad: Rate 62 g/ha, visually evaluated after 12 to 14 days, 0 = no effect, 100 = complete control
In short: as §2

[24] = system: smallflower flatsedge (Cyperus difformis); experiment: Test C flooded paddy test; details: for Flatsedge plant response rating: Flooded Paddy, Rate 500 g/ha, scale 0 to 100, 0 no effect, 100 complete control; for Plant response rating, Flatsedge / Plant response rating (scale 0 to 100), Flatsedge: flooded paddy test; for Plant response rating, Flatsedge: scale 0 to 100 (0 no effect, 100 complete control); for Plant response rating (scale 0 to 100), Flatsedge: Rate 62 g/ha, visually evaluated after 12 to 14 days, 0 = no effect, 100 = complete control
In short: as §2

[25] = system: rice (Oryza saliva); experiment: Test C flooded paddy test; details: for Rice plant response rating: Flooded Paddy, Rate 500 g/ha, scale 0 to 100, 0 no effect, 100 complete control; for Plant response rating, Rice / Plant response rating (scale 0 to 100), Rice: flooded paddy test; for Plant response rating, Rice: scale 0 to 100 (0 no effect, 100 complete control); for Plant response rating (scale 0 to 100), Rice: Rate 62 g/ha, visually evaluated after 12 to 14 days, 0 = no effect, 100 = complete control
In short: as §2

[26] = system: Sunflower; experiment: Test C preemergence; details: Rate 250 g/ha, scale 0 to 100, 0 no effect, 100 complete control
[27] = Preemergence, Rate 500 g/ha, scale 0 to 100, 0 no effect, 100 complete control
[28] = preemergence, Rate 125 g/ha, scale of 0 to 100 where 0 is no effect and 100 is complete control, 13 to 15 days
[29] = Rate 125 g/ha, scale 0 to 100, 0 no effect, 100 complete control
[30] = Rate 500 g/ha, scale 0 (no effect) to 100 (complete control), 13 to 15 days

CCC(C)c1ccn(C2CCN(c3ccc(Br)c(OC)c3)C2=O)n1 (stereo not drawn) [Compound 142]
60: Plant response rating, Cocklebur [7, 27] | Plant response rating, Crabgrass [19, 30] | Plant response rating, Cocklebur [20, 29] | Plant response rating, Pigweed [21, 29]
95: Flatsedge plant response rating [24] | Plant response rating, Flatsedge ([24]; Rate 125 g/ha) | Plant response rating, Flatsedge ([24]; Rate 250 g/ha) | Plant response rating (scale 0 to 100), Flatsedge [24]
55: Rice plant response rating [25]
30: Plant response rating, Foxtail, Giant [16, 29] | Plant response rating (scale 0 to 100), Ducksalad [23]
25: Plant response rating, Rice ([25]; Rate 125 g/ha)
100: Plant response rating, Foxtail, Giant [2, 27] | Plant response rating, Foxtail, Giant [2, 28] | Plant response rating, Barnyardgrass [3, 27] | Plant response rating, Barnyardgrass [3, 28] | Plant response rating, Crabgrass [5, 27] | Plant response rating, Crabgrass [5, 28] | Plant response rating, Surinam grass [6, 27] | Plant response rating, Surinam grass [6, 28] | Plant response rating, Lambsquarters [9, 27] | Plant response rating, Lambsquarters [9, 28] | Plant response rating, Pigweed [10, 27] | Plant response rating, Pigweed [10, 28] | Plant response rating (0 to 100), Nightshade [12] | Barnyardgrass plant response rating [22] | Plant response rating, Barnyardgrass ([22]; Rate 125 g/ha) | Plant response rating, Barnyardgrass ([22]; Rate 250 g/ha) | Ducksalad plant response rating [23] | Plant response rating, Ducksalad ([23]; Rate 250 g/ha)
40: Plant response rating, Rice [8, 27] | Plant response rating, Crabgrass [19, 29]
0: Plant response rating, Corn [4, 28] | Plant response rating, Cocklebur [7, 28] | Plant response rating, Blackgrass [15, 29] | Plant response rating, Blackgrass [15, 30] | Plant response rating, Wild Oat [17, 29] | Plant response rating, Wild Oat [17, 30] | Plant response rating, Wheat [18, 29] | Plant response rating, Wheat [18, 30] | Plant response rating (scale 0 to 100), Rice [25]
10: Plant response rating, Sunflower [13]
20: Plant response rating, Morningglory [1, 28] | Plant response rating, Corn [4, 27] | Plant response rating, Rice [8, 28] | Plant response rating, Velvetleaf [11, 28]
45: Plant response rating, Rice ([25]; Rate 250 g/ha)
80: Plant response rating (0 to 100), Sunflower [14] | Plant response rating, Pigweed [21, 30] | Plant response rating (scale 0 to 100), Barnyardgrass [22] | Plant response rating, Sunflower [26]
90: Plant response rating, Velvetleaf [11, 27] | Plant response rating, Foxtail, Giant [16, 30] | Plant response rating, Cocklebur [20, 30] | Plant response rating, Ducksalad ([23]; Rate 125 g/ha)
50: Plant response rating, Morningglory [1, 27]

CCC(CC)c1ccn(C2CCN(c3ccc(Br)c(OC)c3)C2=O)n1 (stereo not drawn) [Compound 143]
90: Plant response rating, Surinam grass [6, 27] | Plant response rating (0 to 100), Sunflower [14] | Plant response rating, Pigweed [21, 30] | Plant response rating (scale 0 to 100), Flatsedge [24]
70: Plant response rating, Morningglory [1, 27] | Plant response rating, Pigweed [21, 29]
75: Plant response rating, Ducksalad ([23]; Rate 125 g/ha)
60: Plant response rating, Velvetleaf [11, 28] | Plant response rating, Sunflower [13] | Rice plant response rating [25]
20: Plant response rating, Morningglory [1, 28] | Plant response rating, Corn [4, 27]
80: Plant response rating, Surinam grass [6, 28] | Plant response rating, Velvetleaf [11, 27] | Plant response rating, Foxtail, Giant [16, 30] | Plant response rating, Crabgrass [19, 30] | Plant response rating, Sunflower [26]
50: Plant response rating, Rice ([25]; Rate 250 g/ha)
30: Plant response rating, Cocklebur [7, 27] | Plant response rating, Rice [8, 27] | Plant response rating, Foxtail, Giant [16, 29] | Plant response rating, Rice ([25]; Rate 125 g/ha)
55: Plant response rating (scale 0 to 100), Barnyardgrass [22]
45: Plant response rating (scale 0 to 100), Ducksalad [23]
0: Plant response rating, Corn [4, 28] | Plant response rating, Cocklebur [7, 28] | Plant response rating, Rice [8, 28] | Plant response rating, Blackgrass [15, 29] | Plant response rating, Blackgrass [15, 30] | Plant response rating, Wild Oat [17, 29] | Plant response rating, Wild Oat [17, 30] | Plant response rating, Wheat [18, 29] | Plant response rating, Wheat [18, 30] | Plant response rating, Crabgrass [19, 29] | Plant response rating, Cocklebur [20, 29] | Plant response rating (scale 0 to 100), Rice [25]
100: Plant response rating, Foxtail, Giant [2, 27] | Plant response rating, Foxtail, Giant [2, 28] | Plant response rating, Barnyardgrass [3, 27] | Plant response rating, Barnyardgrass [3, 28] | Plant response rating, Crabgrass [5, 27] | Plant response rating, Crabgrass [5, 28] | Plant response rating, Lambsquarters [9, 27] | Plant response rating, Lambsquarters [9, 28] | Plant response rating, Pigweed [10, 27] | Plant response rating, Pigweed [10, 28] | Plant response rating (0 to 100), Nightshade [12] | Plant response rating, Cocklebur [20, 30] | Barnyardgrass plant response rating [22] | Plant response rating, Barnyardgrass ([22]; Rate 125 g/ha) | Plant response rating, Barnyardgrass ([22]; Rate 250 g/ha) | Ducksalad plant response rating [23] | Flatsedge plant response rating [24]
95: Plant response rating, Ducksalad ([23]; Rate 250 g/ha) | Plant response rating, Flatsedge ([24]; Rate 125 g/ha) | Plant response rating, Flatsedge ([24]; Rate 250 g/ha)

CCC(CC)c1ccn(C2CCN(c3ccc(F)c(C(F)(F)F)c3)C2=O)n1 (stereo not drawn) [Compound 144]
20: Plant response rating, Corn [4, 27] | Plant response rating, Foxtail, Giant [16, 29] | Plant response rating, Rice ([25]; Rate 125 g/ha) | Plant response rating (scale 0 to 100), Rice [25]
0: Plant response rating, Morningglory [1, 27] | Plant response rating, Morningglory [1, 28] | Plant response rating, Corn [4, 28] | Plant response rating, Surinam grass [6, 28] | Plant response rating, Cocklebur [7, 27] | Plant response rating, Cocklebur [7, 28] | Plant response rating, Rice [8, 27] | Plant response rating, Rice [8, 28] | Plant response rating, Velvetleaf [11, 27] | Plant response rating, Velvetleaf [11, 28] | Plant response rating, Blackgrass [15, 29] | Plant response rating, Blackgrass [15, 30] | Plant response rating, Wild Oat [17, 29] | Plant response rating, Wild Oat [17, 30] | Plant response rating, Wheat [18, 29] | Plant response rating, Wheat [18, 30] | Plant response rating, Crabgrass [19, 29] | Plant response rating, Cocklebur [20, 29]
45: Plant response rating, Rice ([25]; Rate 250 g/ha)
30: Plant response rating, Cocklebur [20, 30]
40: Plant response rating, Sunflower [13] | Plant response rating, Foxtail, Giant [16, 30] | Plant response rating, Crabgrass [19, 30] | Plant response rating, Sunflower [26]
75: Rice plant response rating [25]
50: Plant response rating, Pigweed [21, 29] | Plant response rating, Ducksalad ([23]; Rate 125 g/ha) | Plant response rating (scale 0 to 100), Ducksalad [23]
100: Plant response rating, Foxtail, Giant [2, 27] | Plant response rating, Foxtail, Giant [2, 28] | Plant response rating, Barnyardgrass [3, 27] | Plant response rating, Crabgrass [5, 27] | Plant response rating, Crabgrass [5, 28] | Plant response rating, Lambsquarters [9, 27] | Plant response rating, Lambsquarters [9, 28] | Plant response rating, Pigweed [10, 27] | Plant response rating, Pigweed [10, 28] | Plant response rating (0 to 100), Nightshade [12] | Plant response rating, Pigweed [21, 30] | Barnyardgrass plant response rating [22] | Plant response rating, Barnyardgrass ([22]; Rate 125 g/ha) | Plant response rating, Barnyardgrass ([22]; Rate 250 g/ha) | Plant response rating (scale 0 to 100), Barnyardgrass [22] | Ducksalad plant response rating [23]
95: Plant response rating, Ducksalad ([23]; Rate 250 g/ha) | Flatsedge plant response rating [24] | Plant response rating, Flatsedge ([24]; Rate 250 g/ha)
85: Plant response rating, Flatsedge ([24]; Rate 125 g/ha) | Plant response rating (scale 0 to 100), Flatsedge [24]
70: Plant response rating, Surinam grass [6, 27] | Plant response rating (0 to 100), Sunflower [14]
80: Plant response rating, Barnyardgrass [3, 28]

From patent US7138361B2, “Herbicidal heterocycles” (E. I. du Pont de Nemours and Company, priority 2000, dated 2006)
